Experimental data reported in US6531466B2, “Tricyclic carbapenem compounds” (GlaxoSmithKline SpA, priority 1996, dated 2003).

How the values were obtained:
[1] = system: methicillin resistant Staphylococcus aureus (MRSA); assay: standard microtiter broth serial dilution test, MRSA strains; type: cell-based; settings: 23 strains of MRSA; approximately 10^5 colony forming units, 35° for 18 hours
Protocol: (§1) The antibacterial activity of the compounds of the invention may be readily determined using conventional test procedures. For example the antibacterial activity of the compounds of the invention was determined using a standard mictoriter broth serial dilution test. In this test the broth was incubated with approximately 10^5 colony forming units of the test organism and incubated at 35° for 18 hours in the presence of test compound.
(§2) In this list the compounds of the invention were tested using this procedure against 23 strains of MRSA and 10 strains of MRSE and the resultant minimum inhibitory concentrations (MIC90) in mg/litre determined.

[2] = system: methicillin resistant Staphylococcus epidermidis (MRSE); assay: standard microtiter broth serial dilution test, MRSE strains; type: cell-based; settings: 10 strains of MRSE; approximately 10^5 colony forming units, 35° for 18 hours
Protocol: as §1, §2

[3] = toxicity on administration to rats; type: in vivo; settings: doses up to 1000 mg/kg
Description: Compounds of the invention are in general non-toxic and therapeutically effective doses.

Structure (SMILES) | MRSA MIC90 [1] | MRSE MIC90 [2] | untoward effects [3]
C[C@@H](O)[C@H]1C(=O)N2C(C(=O)[O-])=C3/C(=C/c4ccc(Cl)c([N+](=O)[O-])c4)CCC[C@@H]3[C@H]12.[Na+] [Example 15, Sodium (8S,9R,10S,12R)-1-aza-10-(1-Hydroxyethyl)-11-oxo-4-[(E)-(4-chloro-3-nitro-phenyl)methylene]-tricyclo-[7,2,0,0^3.8]-undec-2-ene-2-carboxylate] | 4 mg/L | 2 mg/L | –
Cc1cc(/C=C2\CCC[C@H]3C2=C(C(=O)[O-])N2C(=O)[C@H]([C@@H](C)O)[C@@H]32)cc(C)n1.[Na+] [Example 9, Sodium (8S,9R,10S,12R)-1-aza-10-(1-Hydroxyethyl)-11-oxo-4-[(E)-(2,6-dimethylpyridin-4-yl)methylene]-tricyclo-[7,2,0,0^3.8]-undec-2-ene-2-carboxylate] | 8 mg/L | 4 mg/L | –
C[C@@H](O)[C@H]1C(=O)N2C(C(=O)[O-])=C3/C(=C/c4ccnc(Cl)c4)CCC[C@@H]3[C@H]12.[Na+] [Example 12] | 4 mg/L | 2 mg/L | –
C[C@@H](O)[C@H]1C(=O)N2C(C(=O)[O-])=C3/C(=C/c4cc5cnccc5o4)CCC[C@@H]3[C@H]12.[Na+] [Example 13] | 4 mg/L | 4 mg/L | –
C[C@@H](O)[C@H]1C(=O)N2C(C(=O)[O-])=C3/C(=C/c4cc(-c5cc[n+](CC(N)=O)cc5)cs4)CCC[C@@H]3[C@H]12 [Example 18, (8S,9R,10S,12R)-1-aza-10-(1-Hydroxyethyl)-11-oxo-4-[(E)-(4-(1′-(carbamoylmethyl)pyridinium-4-′-yl)thiophen-2-yl)methylene]-tricyclo-[7,2,0,0^3.8]-undec-2-ene-2-carboxylate] | 4 mg/L | 2 mg/L | –
C[C@@H](O)[C@H]1C(=O)N2C(C(=O)[O-])=C3/C(=C/c4ccc([N+](=O)[O-])cc4)CCC[C@@H]3[C@H]12.[Na+] [Example 6, Sodium (8S,9R,10S,12R)-1-aza-10-(1-Hydroxyethyl)-11-oxo-4-[(E)-(4-nitrophenyl)methylene]-tricyclo-[7,2,0,0^3.8]-undec-2-ene-2-carboxylate] | 2 mg/L | 2 mg/L | –
C[C@@H](O)[C@H]1C(=O)N2C(C(=O)[O-])=C3/C(=C/c4ccncc4)CCC[C@@H]3[C@H]12.[Na+] [Example 5, Sodium (8S,9R,10S,12R)-1-aza-10-(1-Hydroxyethyl)-11-oxo-4-[(E)-(pyrid-4-yl)methylene]-tricyclo-[7,2,0,0^3.8]-undec-2-ene-2-carboxylate] | 4 mg/L | 2 mg/L | no untoward effects
C[C@@H](O)[C@H]1C(=O)N2C(C(=O)[O-])=C3/C(=C/c4ccnc(N)c4)CCC[C@@H]3[C@H]12.[Na+] [Example 14, Sodium (8S,9R,10S,12R)-1-aza-10-(1-Hydroxyethyl)-11-oxo-4-[(E)-(2-aminopyrid-4-yl)methylene]-tricyclo-[7,2,0,0^3.8]-undec-2-ene-2-carboxylate] | 8 mg/L | 4 mg/L | –
Cc1cc(/C=C2\CCC[C@H]3C2=C(C(=O)[O-])N2C(=O)[C@H]([C@@H](C)O)[C@@H]32)ccn1.[Na+] [Example 10, Sodium (8S,9R,10S,12R)-1-aza-10-(1-Hydroxyethyl)-11-oxo-4-[(E)-(2-methylpyridin-4-yl)methylene]-tricyclo-[7,2,0,0^3.8]-undec-2-ene-2-carboxylate] | 8 mg/L | 4 mg/L | –

Continued, in another order:

MRSA MIC90 [1] | MRSE MIC90 [2] | Structure (SMILES) | untoward effects [3]
4 mg/L | 2 mg/L | C[C@@H](O)[C@H]1C(=O)N2C(C(=O)[O-])=C3/C(=C/c4cc5ccccc5o4)CCC[C@@H]3[C@H]12.[Na+] [Example 11] | –
4 mg/L | 2 mg/L | C[C@@H](O)[C@H]1C(=O)N2C(C(=O)[O-])=C3/C(=C/c4nc(-c5ccncc5)cs4)CCC[C@@H]3[C@H]12.[Na+] [Example 3, Sodium (8S,9R,10S,12R)-1-aza-10-(1-Hydroxyethyl)-11-oxo-4-[(E)-(4-(4′-pyridyl)thiazol-2-yl)methylene]-tricyclo-[7,2,0,0^3.8]-undec-2-ene-2-carboxylate] | –
8 mg/L | 4 mg/L | C[C@@H](O)[C@H]1C(=O)N2C(C(=O)[O-])=C3/C(=C/c4ccccc4)CCC[C@@H]3[C@H]12.[Na+] [Example 1, Sodium (8S,9R,10S,12R)-1-aza-10-(1-Hydroxyethyl)-11-oxo-4-[(E)-phenylmethylene]-tricyclo-[7,2,0,0^3.8]-undec-2-ene-2-carboxylate] | –
2 mg/L | 1 mg/L | C[C@@H](O)[C@H]1C(=O)N2C(C(=O)[O-])=C3/C(=C/c4cc5ccccc5s4)CCC[C@@H]3[C@H]12.[Na+] [Example 16, Sodium (8S,9R,10S,12R)-1-aza-10-(1-Hydroxyethyl)-11-oxo-4-[(E)-(benzothiophen-2-yl)methylene]-tricyclo-[7,2,0,0^3.8]-undec-2-ene-2-carboxylate] | –
4 mg/L | 2 mg/L | C[C@@H](O)[C@H]1C(=O)N2C(C(=O)[O-])=C3/C(=C/c4nc(-c5ccccc5)cs4)CCC[C@@H]3[C@H]12.[Na+] [Example 7, Sodium (8S,9R,10S,12R)-1-aza-10-(1-Hydroxyethyl)-11-oxo-4-[(E)-(4-phenylthiazol-2-yl)methylene]-tricyclo-[7,2,0,0^3.8]-undec-2-ene-2-carboxylate] | –
4 mg/L | 2 mg/L | C[C@@H](O)[C@H]1C(=O)N2C(C(=O)[O-])=C3/C(=C/c4csc5ccccc45)CCC[C@@H]3[C@H]12.[Na+] [Example 17, Sodium (8S,9R,10S,12R)-1-aza-10-(1-Hydroxyethyl)-11-oxo-4-[(E-)(benzothiophen-3-yl)methylene]-tricyclo-[7,2,0,0^3.8]-undec-2-ene-2-carboxylate] | –
2 mg/L | 2 mg/L | C[C@@H](O)[C@H]1C(=O)N2C(C(=O)[O-])=C3/C(=C/c4cccc(-c5ccncc5)c4)CCC[C@@H]3[C@H]12.[Na+] [Example 8, Sodium (8S,9R,10S,12R)-1-aza-10-(1-Hydroxyethyl)-11-oxo-4-[(E)-(3-(4′-pyridyl)phenyl)methylene]-tricyclo-[7,2,0,0^3.8]-undec-2-ene-2-carboxylate] | –
